US8349553B2, “Jasmonate based assays for identifying compounds that selectively inhibit mitochondrial bound hexokinases” (Ramot at Tel Aviv University Ltd., priority 2007, dated 2013)
“Also recorded” adds a separate entry of the source.

Columns and labels:
[1] = system: CT26 cells transfected with pcDNA3-HKII or pcDNA3; settings: CT26; 3.75 μM; 3 hours exposure
Description: Cell death was determined by trypan blue exclusion. […] Alternatively, cytotoxicity was determined using hemacolor staining. Upon completion of a given experiment, cells were stained and the percentage of dead (detached) cells was determined spectrophotometrically.
CT26 cells were transfected with pcDNA3-HKII or pcDNA3, using FuGene HD transfection reagent (Roche, Basel, Switzerland), according to the manufacturer's instruction followed by selection using G418.
To examine the effect of hexokinase over-expression on methyl jasmonate action, CT26 cells were transfected with plasmids, pcDNA3-HKII or pcDNA3, encoding for hexokinase II over-expression and a control plasmid, respectively (Zaid, 2005). Cells were seeded in 96-well plates and allowed to adhere. Cells were exposed to methyl jasmonate for 60 minutes prior to ATP determination (FIG. […] 9B).

[2] = system: mitochondria-bound hexokinase (mitochondrial fraction from a CT-26 tumor); test: Hexokinase detachment assay, mitochondrial fraction of CT-26 tumor; type: biochemical, murine; settings: CT-26 tumor mitochondrial fraction; 30 minutes of incubation
Description: Mitochondrial fraction was prepared by mechanical lysis and differential centrifugation. All stages were performed on ice. Cells or extracted tissues were washed with PBS and disrupted by homogenization in extraction buffer (Sucrose 250 mM, HEPES-NaOH 10 mM, pH 7.2) freshly supplemented with 0.1 mM EDTA and Protease Inhibitors cocktail (Sigma). For each gram of cells or tissue, 4 volumes of extraction buffer were applied. The homogenate volume was doubled with the extraction buffer, and tissue and cell debris as well as nuclei were pelleted by centrifugation of 1,000 g for 10 minutes. The supernatant was further spun at 13,000 g for 10 minutes twice. Endoplasmic reticulum layer was removed. The pellet, designated as the mitochondrial fraction, was suspended in the appropriate buffer, depending on the assay for which the mitochondrial fraction was prepared. Mitochondrial fractions were used immediately or stored at −196° C.
To determine the amount of hexokinase detached from the mitochondrial fraction by different agents, mitochondria were incubated with the agent of interest and pelleted by centrifugation. Activity of hexokinase in the supernatant (i.e., activity of the detached hexokinase) was determined spectrophotometrically at 340 nm. The reaction couples the ADP formation by hexokinase, consuming the ADP for pyruvate formation by pyruvate kinase, and reducing the pyruvate with NADH by lactate dehydrogenase. Briefly, mitochondria were suspended in incubation buffer (HEPES pH 7.4 20 mM, Sucrose 0.25M, Glucose 10 mM, KCl5 mM, MgCl2 10 mM; 0.2 mg/test, 100 μL/test) and incubated as described below. […]
Methyl jasmonate perturbs mitochondria directly in a PTPC-dependent manner (Rotem, 2005). In order to determine whether methyl jasmonate is able to detach hexokinase from mitochondrial fraction isolated from CT-26 tumors, the activity of hexokinase in the supernatant of mitochondrial fraction treated for different time periods was measured. […] The activity of unbound hexokinase was measured and compared to the activity of spontaneously detached hexokinase (control).

purified rat brain HKI = biological target: T1, purified rat brain HKI (Rattus norvegicus, UniProt P05708); test: Surface plasmon resonance analysis of jasmonate-HK interactions; type: binding; settings: analyte injected at varying concentrations (MJ 0.375-6 mM); 25° C.
T1 construct: from tissue; host or cells: rat brain mitochondria
T1 sequence (P05708 whole entry): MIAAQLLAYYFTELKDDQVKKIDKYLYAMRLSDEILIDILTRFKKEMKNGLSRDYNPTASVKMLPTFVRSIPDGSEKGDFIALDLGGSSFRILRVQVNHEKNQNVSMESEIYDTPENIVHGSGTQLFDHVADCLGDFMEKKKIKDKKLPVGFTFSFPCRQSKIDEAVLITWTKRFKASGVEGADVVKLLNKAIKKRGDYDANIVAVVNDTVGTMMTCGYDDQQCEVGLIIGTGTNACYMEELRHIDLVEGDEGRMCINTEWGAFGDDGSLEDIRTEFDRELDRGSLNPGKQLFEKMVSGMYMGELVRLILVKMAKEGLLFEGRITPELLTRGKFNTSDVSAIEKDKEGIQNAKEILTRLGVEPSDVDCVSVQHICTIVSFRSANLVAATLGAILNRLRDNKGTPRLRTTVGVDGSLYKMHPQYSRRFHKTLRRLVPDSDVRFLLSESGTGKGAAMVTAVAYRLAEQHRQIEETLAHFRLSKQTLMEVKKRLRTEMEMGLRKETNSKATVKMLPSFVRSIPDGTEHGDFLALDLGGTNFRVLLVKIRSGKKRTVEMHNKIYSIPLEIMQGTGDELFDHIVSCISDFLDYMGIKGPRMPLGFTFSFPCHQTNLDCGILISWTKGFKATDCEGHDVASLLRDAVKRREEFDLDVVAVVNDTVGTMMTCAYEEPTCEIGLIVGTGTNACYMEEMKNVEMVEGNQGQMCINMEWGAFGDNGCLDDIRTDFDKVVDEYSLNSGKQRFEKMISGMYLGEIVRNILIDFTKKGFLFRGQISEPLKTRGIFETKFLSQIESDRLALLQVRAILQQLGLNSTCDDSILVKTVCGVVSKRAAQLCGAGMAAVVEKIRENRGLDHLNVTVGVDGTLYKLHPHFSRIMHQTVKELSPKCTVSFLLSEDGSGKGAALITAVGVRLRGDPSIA
Description: Rat brain HK-I was purified as following, crude brain mitochondria containing tightly bound HK-I were incubated with 1.2 mM glucose-6-phosphate and 0.5 mM K-EDTA to release the enzyme into the soluble fraction. Further purification of HK-I was achieved by affinity chromatography on Cibacron Blue-agarose (Pharmacia). The purified enzyme was concentrated and washed in 0.5 mM K-EDTA, 10 mM glucose, 1 mM dithiothreitol and 10 mM K-Hepes, pH 7.8, using an Amicon device and a 50,000 Da molecular mass cut-off membrane (Spectrum; type C). The concentrated enzyme (up to 1 mg/ml; 30-60 units/mg) was frozen in liquid nitrogen and stored at −80° C. until use (Azoulay-Zohar, 2004).
Surface plasmon resonance (SPR) is an optical biosensor technique that measures molecular binding events at a metal surface by detecting changes in the local refractive index. SPR is the surface-sensitive technique ideal for studying interactions between immobilized biomolecules (ligands) and a solution-phase analyte. The biosensor response is directly proportional to the mass of the bound analyte. The advantage of SPR for investigation of small molecular weight analytes over conventional techniques such as fluorescence or enzyme-linked immunosorbent assay is detection of an analyte being label-free and direct, without the need for labeling of analyte or multistep detection protocols (sandwich assay). […]

[3] = system: mitochondrial fraction of mouse brain; test: Mitochondrial swelling assay, mouse brain; type: biochemical; settings: 1 mM
Description: (§1) Freshly isolated mitochondrial fraction was washed with extraction buffer to remove EDTA and resuspended in swelling buffer (Mannitol 220 mM, Sucrose 70 mM, Tris, pH 7.2, 150 mM, KH2PO4, pH 7.2, 0.2 mM; 0.2 mg in 100 μL) freshly supplemented with potassium succinate, pH 7.2, 5 mM. Every component was sodium-free. Optical density was monitored at the wave length of 540 nm for 2-5 minutes before the addition of the examined reagents, e.g. methyl jasmonate, and for additional 20 minutes afterwards.
(§2) In order to examine the consistency of the relationship between the ability of methyl jasmonate to detach bound hexokinase and mitochondrial damage, methyl jasmonate was tested in mouse brain in comparison to mouse liver. The comparison was performed due to known differences of mitochondrial hexokinase content between mouse brain vs. its liver. It is well established in the art that brain mitochondrial fraction is rich in bound hexokinase, while liver mitochondrial fraction is essentially devoid of it (Wilson, 1995). […] Mitochondrial fractions were incubated for either 10, 30 or 60 minutes at 37° C. The activity of unbound hexokinase was measured and compared to the activity of spontaneously (control) detached hexokinase. Consequently, the ability of methyl jasmonate to induce swelling in mitochondrial fraction isolated from mouse brain and liver was tested.

[4] = system: mitochondrial fraction of mouse liver; test: Mitochondrial swelling assay, mouse liver; type: biochemical; settings: 1 mM
Description: as §1, §2

hexokinase = test: Hexokinase activity, agent added directly to the coupled assay mixture; type: biochemical; settings: coupled pyruvate kinase/lactate dehydrogenase assay, 340 nm
[5] = Fingrut, 2002, 2005, Rotem; cited from earlier work

binding to immobilized hexokinase (SPR) (purified rat brain HKI)	Structure (SMILES)	cytotoxicity (hemacolor), hexokinase II over-expressing vs. control cells [1]	detachment of hexokinase (activity of unbound hexokinase compared to control), dose dependence [2]	mitochondrial swelling (optical density at 540 nm) [3]	mitochondrial swelling (optical density at 540 nm) [4]	influence on hexokinase activity when added directly to the assay mixture (hexokinase)	cytotoxicity relative to methyl jasmonate [5]
	CN[C@@H]1C[C@H]2O[C@@](C)([C@@H]1OC)n1c3ccccc3c3c4c(c5c6ccccc6n2c5c31)C(=O)NC4 [staurosporine]	similarly decreased by hexokinase II over-expression					
did not bind hexokinase at all	CC/C=C\C[C@H]1C(=O)CC[C@@H]1CC(=O)O [jasmonic acid]		did not show considerable detachment of hexokinase from mitochondrial fraction; also recorded: less effective than methyl jasmonate at detaching hexokinase from mitochondrial fraction	to a marginal extent	not in liver	neither methyl jasmonate nor jasmonic acid added directly to the assay mixture, influence hexokinase activity	lower cytotoxicity than methyl jasmonate
